# Test results as given in patent publication US7659299B2, “Compounds inhibiting the binding of sap for treating osteoarthritis” (Pentraxin Therapeutics Limited, priority 2003, dated 2010).
# Values joined by “and” are separate entries in the source; they are usually repeats but may differ in a detail not shown here. Equal entries are not always repeated.
# Target: SAP (Homo sapiens, UniProt P02743)
# Test: Isothermal calorimetry: dissociation constants between SAP and compounds
# Assay type: binding
# Conditions: replicate measurements, read-out: Kd in micromoles per liter (replicate measurements)
# From the text: Surface plasmon resonance (SPR) is a low throughput but powerfully informative method to identify compounds that are bound by, or themselves bind to SAP, either in a calcium dependent fashion or independently of calcium, for the purposes of the present invention. For example, low molecular weight compounds that inhibit binding of SAP to its macromolecular ligands, including target ligands relevant to the present invention, can be detected by their effect on the signal generated by fluid phase SAP binding to ligand immobilised on the solid phase (Example A). Furthermore, when SAP itself is immobilised on the solid phase in an SPR instrument, the interaction with it of test molecules provided in the fluid phase generates a signal that can be detected and quantified. Purified SAP immobilized within an SPR instrument gives a quantifiable signal when it is exposed to another molecule that forms a complex with the SAP, and this is distinct from the absence of such a signal if no complex is formed. […] Another low throughput but powerful direct method is isothermal calorimetry that measures the heat of interaction in solution between SAP and test compounds according to the present invention. The binding affinity can be measured precisely as a guide to potential efficacy. Typical results by this method for the dissociation constants, Kd, between SAP and various compounds are as follows: […]
# SAP, sequence (P02743 20-223): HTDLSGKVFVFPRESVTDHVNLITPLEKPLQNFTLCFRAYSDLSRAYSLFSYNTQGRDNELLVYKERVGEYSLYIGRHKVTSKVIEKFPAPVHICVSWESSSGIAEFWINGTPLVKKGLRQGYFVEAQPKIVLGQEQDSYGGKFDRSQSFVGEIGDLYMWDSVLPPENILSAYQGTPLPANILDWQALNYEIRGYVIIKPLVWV
smiles,measurement,value
"O=C(O)[C@H]1CCCN1C(=O)CCCCC(=O)N1CCC[C@@H]1C(=O)O [Ro-63-8695, (R)-1-[6-[(R)-2-Carboxy-pyrrolidin-1-yl]-6-oxo-hexanoyl]pyrrolidine-2-carboxylic acid]",Kd,13.9 nM and 5.9 nM and 6.5 nM and 8.8 nM
